Measurements reported in patent publication US20120108629A1, “New use of neferine” (Institute of Chinese Materia Medica, China Academy, priority 2009, published 2012).

Key:
[1] = system: TRPV1 mRNA; assay: TRPV1 mRNA expression in DRG cells by real-time PCR; assay type: cell-based, rat; conditions: for TRPV1 mRNA expression (2^−ΔΔCT): 37° C. 24 h
[2] = system: Cancer gene-containing human breast epithelial cell line MCF10A-Myc; assay: Inhibition on proliferation, MCF10A-Myc; assay type: cell-based; conditions: 72 h incubation
Excerpt: (§1) Inhibition on proliferation of human cancer cells: It is reported that the drugs that up-regulate TRPM8 or down-regulate TRPV1 can inhibit proliferation of breast cancer. To further investigate whether neferine follow the same way, human breast cancer cell line MDA-MB-231 and MDA-MB-453 as well as cancer gene-containing human breast gland epithelial cell line MCF10A-Myc and human pancreatic cancer cell line MIAPaCa-2 were employed and cultured in DMEM or DMEM/F12 medium with epithelial growth factor in vitro. After incubation with various concentrations of test agents for 72 h, the effective concentration of them for inhibiting the tumor cells was assayed according to the common method in the art.
(§2) According to the “Inhibition on proliferation of human cancer cells” described above, the effective concentrations of neferine for the inhibition of tumors were obtained (table 11).

[3] = molecular target: TRPV1 (Rattus norvegicus, UniProt O35433); assay: Intracellular calcium change in DRG cells, Fluo-4 fluorescence (Examples 9-11, Tables 9-11); assay type: cell-based
Experimental: (§3) Detection of intracellular calcium concentrations of DRG cells: DRG cells cultured under normal, low and high temperature conditions was obtained. The medium was discarded and the cells were washed after certain time. 0.1%F-127, 5 μM of Fluo-4-AM, M fluorescent dye were added and loaded at 25° C. out of light for 30 min. After dye loading, the redundant dye was washed out and buffer and test compounds were added respectively. The cells were put in a closed chamber on a microscope stage. Fluorescence dyed cells were detected with appropriate conditions. The change of fluorescence intensity in each cell was determined and the data were analyzed by software. The change of the intracellular calcium concentration was indicated by fluorescence intensity. The change degree of the intracellular calcium concentration was represented by the percent ratio of the change value of fluorescence intensity before and after administration and the value of fluorescence intensity before administration (Δ[Ca2+]i), i.e. Δ[Ca2+]i=(fluorescence intensity value after administration F-fluorescence intensity value before administration F0)/fluorescence intensity value before administration F0×100%. The change of the intracellular calcium concentration indicated the function of TRP.
(§4) The medium was discarded and the fluorescent dye was added and loaded for 30 min. The change of fluorescence intensity in cell was determined in a closed chamber on a microscope stage and the change of the intracellular calcium concentration was assayed.
as §4
(this is the appropriate stimulation time for the intracellular calcium change after stimulation under 19° C., and the experiment data was not shown). The medium was discarded and the fluorescent dye was added and loaded for 30 min.

[4] = system: TRPV1; assay: Intracellular calcium change in DRG cells, Fluo-4 fluorescence (Examples 4-5, Tables 4-5); assay type: cell-based, rat
Experimental: as §3, §4, §4

[5] = system: Human breast cancer cell line MDA-MB-453; assay: Inhibition on proliferation of human cancer cells, MDA-MB-453; assay type: cell-based; conditions: MDA-MB-453, 72 h incubation
Excerpt: as §1, §2

[6] = system: TRPM8 mRNA; assay: TRPM8 mRNA expression in DRG cells by real-time PCR; conditions: for Effect on TRPM8 mRNA expression (in words) / TRPM8 mRNA expression (2^−ΔΔCT): DRG cells
Experimental: DRG were aseptically removed and meticulously cleaned the rootlets and connective tissue. The tissue was digested with collagenase and trypsin in succession, and then centrifuged and the digestive liquid was discarded. Cells were prepared into single cell suspension in common culture medium, and then calculated and adjusted to 10^5 nerve cells per ml. It was incubated in culture plates pre-coated with laminin at 37° C. in 5% CO2 for 48 hours. Camptothecine was used to inhibit proliferation of other cells. Culture was continued to obtain DRG cells with a high purity (>98%).
Detection of TRPM8 and TRPV1 mRNA expression: The total RNA of the DRG neuronal cells was extracted in a routine way, after exposure to the tested agents of various concentrations under the normal, low and high temperature conditions respectively. The concentration of RNA was measured and its cDNA was prepared. The desired amount of resulting cDNA and TRPM8 or TRPV1 gene primers were added on the IQ5-Type real-time IQ5-Type real-time PCR meter with GAPDH as the endogenous control to perform extension. Melting curves were generated. Relative gene expression was calculated using the comparative threshold cycle (2-^ΔΔCT) method with the calculated formula as following:
ΔΔCt=(Ct,Target-Ct,GAPDH)x-(Ct,Target-Ct,GAPDH)Control
X represents any one of tested, Control represents double target gene expression after GAPDH correction.
The purified culture medium of DRG cells was added with three different concentrations of test compounds and cultured at 37° C. in 5% CO2 for 24 h. The total RNA was extracted immediately after culture. The TRPM8 agonist hexahydrothymol was positive control group and the normal culture medium was vehicle control group. Then the real-time PCR amplification was performed and TRPM8 mRNA was determined.
The purified culture medium of DRG cells was added with three different concentrations of test compounds and cultured at 37° C. in 5% CO2 for 23 h followed by 39° C. in 5% CO2 for 1 h. The total RNA was extracted immediately after culture. The TRPM8 agonist hexahydrothymol was positive control group and the normal culture medium was vehicle control group. Then the real-time PCR amplification was performed and TRPM8 mRNA was determined.
The purified culture medium of DRG cells was added with three different concentrations of test compounds and cultured at 37° C. in 5% CO2 for 22 h followed by 19° C. in 5% CO2 for 2 h. The total RNA was extracted immediately after culture. The TRPM8 agonist hexahydrothymol was positive control group and the normal culture medium was vehicle control group. Then the real-time PCR amplification was performed and TRPM8 mRNA was determined.

[7] = system: Human breast cancer cell line MDA-MB-231; assay: Inhibition on proliferation of human cancer cells, MDA-MB-231; assay type: cell-based; conditions: MDA-MB-231, 72 h incubation
Excerpt: as §1, §2

[8] = system: Human pancreas cancer cell line MIAPaCa-2; assay: Inhibition on proliferation of human cancer cells, MIAPaCa-2; assay type: cell-based
Excerpt: as §1, §2

[9] = system: breast cancer cells; assay: Inhibition on proliferation of human cancer cells, breast cancer cells; assay type: cell-based
Excerpt: as §1, §2

[10] = 37° C. 22 h then 19° C. 2 h, 2.5 μmol/L
[11] = 37° C. 22 h then 19° C. 2 h, 5 μmol/L
[12] = 37° C. 22 h then 19° C. 2 h, 10 μmol/L
[13] = 37° C. 23 h then 39° C. 1 h, 2.5 μmol/L
[14] = 37° C. 23 h then 39° C. 1 h, 5 μmol/L
[15] = 37° C. 23 h then 39° C. 1 h, 10 μmol/L

TRPV1 (Rattus norvegicus, UniProt O35433), sequence (O35433 whole entry): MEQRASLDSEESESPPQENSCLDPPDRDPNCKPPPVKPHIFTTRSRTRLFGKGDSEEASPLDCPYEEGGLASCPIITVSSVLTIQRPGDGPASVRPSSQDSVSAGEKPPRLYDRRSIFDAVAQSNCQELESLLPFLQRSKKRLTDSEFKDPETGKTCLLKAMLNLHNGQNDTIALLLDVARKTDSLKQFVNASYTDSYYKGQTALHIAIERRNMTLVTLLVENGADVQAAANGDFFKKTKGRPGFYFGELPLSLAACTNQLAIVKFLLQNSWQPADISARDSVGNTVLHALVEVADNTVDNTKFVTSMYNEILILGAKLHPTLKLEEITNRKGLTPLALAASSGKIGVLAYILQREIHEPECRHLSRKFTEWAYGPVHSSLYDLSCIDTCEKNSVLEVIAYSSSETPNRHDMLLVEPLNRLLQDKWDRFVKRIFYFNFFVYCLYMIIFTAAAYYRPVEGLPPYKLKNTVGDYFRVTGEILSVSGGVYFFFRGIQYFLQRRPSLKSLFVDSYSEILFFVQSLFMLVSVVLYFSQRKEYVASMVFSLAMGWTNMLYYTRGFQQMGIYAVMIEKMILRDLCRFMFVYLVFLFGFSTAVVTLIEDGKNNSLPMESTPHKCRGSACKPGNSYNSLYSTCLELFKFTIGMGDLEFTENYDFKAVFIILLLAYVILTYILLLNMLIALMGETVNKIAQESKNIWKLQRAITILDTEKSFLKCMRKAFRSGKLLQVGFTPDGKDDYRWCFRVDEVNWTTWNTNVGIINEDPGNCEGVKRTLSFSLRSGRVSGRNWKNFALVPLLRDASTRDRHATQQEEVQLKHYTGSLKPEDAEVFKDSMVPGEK

With neferine the “Effect on TRPV1 mRNA expression (in words)” value ([1]; 19° C.) was “further inhibit expression levels of TRPV1 mRNA dose-dependently”, the “TRP V1 mRNA expression(2^−ΔΔCT)” value [1, 10] was 0.54 ± 0.17 and the “TRP V1 mRNA expression(2^−ΔΔCT)” value [1, 11] was 0.47 ± 0.20. For the same substance, the “TRP V1 mRNA expression(2^−ΔΔCT)” value [1, 12] was 0.45 ± 0.23, the “TRP V1 mRNA expression(2^−ΔΔCT)” value [1, 13] was 4.16 ± 0.71 and the “TRP V1 mRNA expression(2^−ΔΔCT)” value [1, 14] was 3.70 ± 0.69. The “TRP V1 mRNA expression(2^−ΔΔCT)” value [1, 15] was 3.13 ± 0.51, the “TRPV1 mRNA expression (2^−ΔΔCT)” value ([1]; 2.5 μmol) was 0.96 ± 0.41 and the “TRPV1 mRNA expression (2^−ΔΔCT)” value ([1]; 5 μmol) was 1.09 ± 0.30. The “TRPV1 mRNA expression (2^−ΔΔCT)” value ([1]; 10 μmol) was 1.04 ± 0.43, the “Effect on TRPV1 mRNA expression (in words)” value ([1]; 37° C., under the test concentrations) was “could not change expression levels of TRPV1 mRNA” and the “Effect on TRPV1 mRNA expression (in words)” value ([1]; 39° C.) was “decrease the expression levels of TRPV1 mRNA dose-dependently”. The Inhibition concentration [2] was 5.95 µg/mL, the “Effect on intracellular calcium concentration (in words)” value ([3]; Example 9, DRG cells, 37° C.) was “decrease the concentration of intracellular calcium dose-dependently” and the “correlation coefficient of dose dependence, intracellular calcium” value ([3]; Example 9, DRG cells, 37° C.) was −0.85. The “Effect on intracellular calcium concentration (in words)” value ([3]; Example 10, DRG cells, 39° C.) was “inhibit the change of the intracellular calcium concentration dose-dependently”, the “correlation coefficient of dose dependence, intracellular calcium” value ([3]; Example 10, DRG cells, 39° C.) was −0.815 and the “Effect on intracellular calcium concentration (in words)” value ([3]; Example 11, DRG cells, 19° C.) was “further inhibit the change of the intracellular calcium concentration dose-dependently”. For the same substance, the “correlation coefficient of dose dependence, intracellular calcium” value ([3]; Example 11, DRG cells, 19° C.) was −0.99, the “Intracellular Calcium changes [(F1 − F0)/F0/%]” value ([3]; Table 9, DRG cells, 37° C. 24 h, 2.5 μmol/L) was 98.15 ± 10.71% and the “Intracellular Calcium changes [(F1 − F0)/F0/%]” value ([3]; Table 9, DRG cells, 37° C. 24 h, 5 μmol/L) was 98.64 ± 12.77%. The “Intracellular Calcium changes [(F1 − F0)/F0/%]” value ([3]; Table 9, DRG cells, 37° C. 24 h, 10 μmol/L) was 96.33 ± 8.96%, the “Intracellular Calcium changes [(F1 − F0)/F0/%]” value ([3]; Table 10, DRG cells, 37° C. 22 h then 39° C. 2 h, 2.5 μmol/L) was 128.63 ± 14.40% and the “Intracellular Calcium changes [(F1 − F0)/F0/%]” value ([3]; Table 10, DRG cells, 37° C. 22 h then 39° C. 2 h, 5 μmol/L) was 120.51 ± 11.29%. The “Intracellular Calcium changes [(F1 − F0)/F0/%]” value ([3]; Table 10, DRG cells, 37° C. 22 h then 39° C. 2 h, 10 μmol/L) was 119.49 ± 11.21%, the “Intracellular Calcium changes [(F1 − F0)/F0/%]” value ([3]; Table 11, DRG cells, 37° C. 21 h then 19° C. 3 h, 2.5 μmol/L) was 99.71 ± 10.96% and the “Intracellular Calcium changes [(F1 − F0)/F0/%]” value ([3]; Table 11, DRG cells, 37° C. 21 h then 19° C. 3 h, 5 μmol/L) was 98.30 ± 11.89%. For the same substance, the “Intracellular Calcium changes [(F1 − F0)/F0/%]” value ([3]; Table 11, DRG cells, 37° C. 21 h then 19° C. 3 h, 10 μmol/L) was 93.02 ± 10.54%, the “Effect on intracellular calcium concentration (in words)” value ([4]; Example 4, DRG cells, 37° C.) was “increase the intracellular calcium concentration dose-dependently” and the “Intracellular Calcium changes [(F1 − F0)/F0/%]” value ([4]; Table 4, DRG cells, 37° C. 24 h, 2.5 μmol/L) was 121.41 ± 10.05%. The “Intracellular Calcium changes [(F1 − F0)/F0/%]” value ([4]; Table 4, DRG cells, 37° C. 24 h, 5 μmol/L) was 128.16 ± 11.48%, the “Intracellular Calcium changes [(F1 − F0)/F0/%]” value ([4]; Table 4, DRG cells, 37° C. 24 h, 10 μmol/L) was 132.07 ± 19.30 % and the “Intracellular Calcium changes [(F1 − F0)/F0/%]” value ([4]; Table 5, DRG cells, 37° C. 22 h then 39° C. 2 h, 2.5 μmol/L) was 107.88 ± 13.07%. The “Intracellular Calcium changes [(F1 − F0)/F0/%]” value ([4]; Table 5, DRG cells, 37° C. 22 h then 39° C. 2 h, 5 μmol/L) was 108.09 ± 12.85%, the “Intracellular Calcium changes [(F1 − F0)/F0/%]” value ([4]; Table 5, DRG cells, 37° C. 22 h then 39° C. 2 h, 10 μmol/L) was 112.72 ± 11.74 % and the Inhibition concentration [5] was 2.05 µg/mL. The “Effect on TRPM8 mRNA expression (in words)” value ([6]; 19° C.) was “up-regulate the expression levels of TRPM8 mRNA dose-dependently”, the “Effect on TRPM8 mRNA expression (in words)” value ([6]; 37° C.) was “up-regulate the expression levels of TRPM8 mRNA dose-dependently” and the “TRPM8 mRNA expression (2^−ΔΔCT)” value [6, 10] was 3.25 ± 0.65. The “TRPM8 mRNA expression (2^−ΔΔCT)” value [6, 11] was 3.37 ± 0.87, the “TRPM8 mRNA expression (2^−ΔΔCT)” value [6, 12] was 3.49 ± 0.82 and the “TRPM8 mRNA expression (2^−ΔΔCT)” value [6, 13] was 0.74 ± 0.23. For the same substance, the “TRPM8 mRNA expression (2^−ΔΔCT)” value [6, 14] was 0.78 ± 0.33, the “TRPM8 mRNA expression (2^−ΔΔCT)” value [6, 15] was 0.79 ± 0.24 and the “TRPM8 mRNA expression (2^−ΔΔCT)” value ([6]; 37° C. 24 h, 2.5 μmol/L) was 1.10 ± 0.27. For the same substance, the “TRPM8 mRNA expression (2^−ΔΔCT)” value ([6]; 37° C. 24 h, 5 μmol/L) was 1.14 ± 0.31, the “TRPM8 mRNA expression (2^−ΔΔCT)” value ([6]; 37° C. 24 h, 10 μmol/L) was 1.28 ± 0.27 and the “Effect on TRPM8 mRNA expression (in words)” value ([6]; 39° C.) was “did not up-regulate TRPM8 mRNA expression”. For the same substance, the “Effect compared with the agonist hexahydrothymol (in words)” value ([6]; general statement on TRPM8) was “stronger effect than hexahydrothymol”, the Inhibition concentration [7] was 1.30 µg/mL and the Inhibition concentration ([8]; MIAPaCa-2, 72 h incubation) was 3.64 µg/mL. For the same substance, the “inhibition concentration for pancreas” value ([8]; pancreas cancer cells) was “below 4 μg/ml” and the “inhibition concentration on breast cancer cells” value [9] was “below 2.1 μg/ml”.
